Values of other authors in PMC7395068, “The evolution of strategies to minimise the risk of human drug-induced liver injury (DILI) in drug discovery and development” (Archives of Toxicology, 2020).
Where two headings read alike, the source gives them in different places.

Assays:
[1] = FDA drug labelling score; ref Chen 2011; cited from earlier work
[2] = ref Chen 2016, cited from earlier work
[3] = test system: PHH; details: In vitro Assay; ref Proctor 2017; cited from earlier work
[4] = test system: primary human hepatocytes, NIH3T3 fibroblasts, BSEP, CYP3A4; details: cited from earlier work
[5] = test system: HepG2 cells, primary human hepatocytes; details: cited from earlier work
[6] = test system: rBsep; details: In vitro Assay; ref Dawson 2012; cited from earlier work
[7] = test system: THLE-Null and THLE-3A4 cells; details: In vitro Assay; ref Gustafsson 2014; cited from earlier work
[8] = test system: PHH spheroids; details: In vitro Assay; ref Vorrink 2018; cited from earlier work
[9] = test system: hLiMTs; details: In vitro Assay; ref Proctor 2017; cited from earlier work
[10] = test system: THLE or HepG2 cells, isolated mitochondria, BSEP; details: cited from earlier work
[11] = test system: HepG2 C3A spheroid, BSEP, Glu/Gal in HepG2 cells, bioactivation; details: cited from earlier work
[12] = cited from earlier work
[13] = test system: HepG2 cells; details: cited from earlier work; for Cluser analysis / Structural based (HCI): In vitro Assay, ref Persson 2013
[14] = test system: human hepatocytes; details: cited from earlier work
[15] = test system: HepG2 cells; details: In vitro Assay; ref O'Brien 2006; cited from earlier work
[16] = In vitro Assay, ref Schadt 2015
[17] = In vitro Assay, ref Garside 2014
[18] = In vitro Assay, ref Williams 2019

Compound | PHH ATP <100uM [3] | Cellular toxicity (3T3 cells) [4, 16] | GSH adduct HML [4, 16] | Hepatocyte cellular toxicity [4, 16] | MitoTox 3T3 [4, 16] | TDI CYP3A4 [4, 16] | hBSEP inhibition [4, 16] | Cluster 1-6 +VE Assay [5, 17] | DILI +VE (5-8), DILI -VE (-4) [2] | DILI severity category [2] | THLE-Null [7] | THLE-Null/3A4 [7] | hLiMTs ATP <100uM [9] | Bayesian Machine Learning [11, 18] | In vivo DILI ([12]; ref Garside 2014) | In vivo DILI ([12]; ref Gustafsson 2014) | In vivo DILI ([12]; ref Proctor 2017) | In vivo DILI ([12]; ref Schadt 2015) | In vivo DILI ([12]; ref Williams 2019) | also measured
Nc1nc(NC2CC2)c2ncn([C@H]3C=C[C@@H](CO)C3)c2n1 [abacavir] | – | – | – | – | – | – | – | – | – | – | – | – | – | – | – | – | – | – | – | DILI Score (FDA) (1-8) [1]: 8; DILI severity category ([2]; LTKB DILIrank category): vMost-DILI-Concern
CC(C(=O)O)c1ccc2oc(-c3ccc(Cl)cc3)nc2c1 (stereo not shown) [benoxaprofen] | -VE | -VE | -VE | -VE | -VE | -VE | -VE | +VE | +VE | vMost-DILI-Concern | -VE | -VE | -VE | +VE | +VE | +VE | +VE | +VE | +VE | Combined Assay [4, 16]: +VE; Inhibition of rBsep cutoff<1& cmax u>.2 [6]: +VE; Inhibition of rBsep cutoff<3 [6]: +VE; hLiMTs ATP <20 x Cmax [8]: -VE; Partition Hybrid HRM Score ([10]; In vitro Assay, ref Aleo 2019): +VE; Ro2 Hybrid HRM Score ([10]; In vitro Assay, ref Aleo 2019): +VE; In vivo DILI ([12]; ref Aleo 2019): +VE; In vivo DILI ([12]; ref Dawson 2012): +VE; In vivo DILI ([12]; ref Vorrink 2018): +VE
Nc1c(CC(=O)O)cccc1C(=O)c1ccc(Br)cc1 [bromfenac, reference compound] | – | -VE | -VE | -VE | -VE | -VE | -VE | – | +VE | vMost-DILI-Concern | -VE | -VE | – | +VE | – | +VE | – | +VE | +VE | Combined Assay [4, 16]: -VE; Partition Hybrid HRM Score ([10]; In vitro Assay, ref Aleo 2019): +VE; Ro2 Hybrid HRM Score ([10]; In vitro Assay, ref Aleo 2019): +VE; Cluser analysis [13]: -VE; Structural based (HCI) [13]: -VE; DILI in vitro assay prediction, Persson (2013) ([13]; Structural based (HCI), HepG2, ref Persson et al. 2013): negative; In vivo DILI ([12]; […]): +VE; In vivo DILI ([12]; ref Aleo 2019): +VE; In vivo DILI ([12]; ref Persson 2013): +VE
Cc1ccc(-c2cc(C(F)(F)F)nn2-c2ccc(S(N)(=O)=O)cc2)cc1 [celecoxib] | +VE (IC50 threshold of 100 µM) | +VE | -VE | -VE | -VE | -VE | -VE | +VE | +VE | vLess-DILI-Concern | +VE | – | +VE (IC50 threshold of 100 µM) | +VE | +VE | +VE | +VE | +VE | +VE | hLiMTs ATP <20 x Cmax [8]: +VE (IC20 < 20 × Cmax.tot cut-off); In vivo DILI ([12]; ref Vorrink 2018): +VE
CN(C)CCCN1c2ccccc2CCc2ccc(Cl)cc21 [clomipramine] | – | – | – | – | – | – | – | +VE | – | – | – | – | – | +VE | – | – | – | – | – | Structural based (HCI) ([14]; In vitro Assay, ref Xu 2008): -VE
N[C@@H]1CON=C1O [cycloserine] | – | – | – | – | – | – | – | – | – | – | -VE | – | – | -VE | – | – | – | – | – | Inhibition of rBsep cutoff<1& cmax u>.2 [6]: -VE; Inhibition of rBsep cutoff<3 [6]: -VE
O=C(O)Cc1csc(-c2ccc(Cl)cc2)n1 [fenclozic acid] | – | – | – | – | – | – | – | +VE | +VE | vMost-DILI-Concern | -VE | -VE | – | +VE | +VE | +VE | – | – | +VE | Inhibition of rBsep cutoff<1& cmax u>.2 [6]: -VE; Inhibition of rBsep cutoff<3 [6]: -VE; In vivo DILI ([12]; ref Dawson 2012): +VE
Cc1onc(-c2c(F)cccc2Cl)c1C(=O)N[C@@H]1C(=O)N2[C@@H]1SC(C)(C)[C@@H]2C(=O)O [flucloxacillin] | +VE (IC50 threshold of 100 µM) | – | – | – | – | – | – | – | – | – | -VE | -VE | -VE | +VE | – | +VE | +VE | – | +VE | Inhibition of rBsep cutoff<1& cmax u>.2 [6]: -VE; Inhibition of rBsep cutoff<3 [6]: -VE; In vivo DILI ([12]; ref Dawson 2012): +VE
CC(C)Cc1ccc(CC(=O)O)cc1 [ibufenac] | – | -VE | +VE | -VE | -VE | -VE | -VE | +VE | +VE | vMost-DILI-Concern | – | – | – | +VE | +VE | – | – | +VE | +VE | Combined Assay [4, 16]: +VE
CCC(C)n1ncn(-c2ccc(N3CCN(c4ccc(OCC5COC(Cn6cncn6)(c6ccc(Cl)cc6Cl)O5)cc4)CC3)cc2)c1=O (stereo not shown) [itraconazole] | -VE | -VE | -VE | -VE | +VE | -VE | -VE | – | +VE | vMost-DILI-Concern | – | – | +VE (IC50 threshold of 100 µM) | +VE | – | – | +VE | +VE | +VE | Combined Assay [4, 16]: +VE; Structural based (HCI) [15]: +VE; Cluser analysis [13]: +VE; Structural based (HCI) [13]: +VE; In vivo DILI ([12]; ref O'Brien 2006): +VE; In vivo DILI ([12]; ref Persson 2013): +VE
COC(=O)C1=C(C)NC(C)=C(C(=O)OCCN(C)Cc2ccccc2)C1c1cccc([N+](=O)[O-])c1 (stereo not shown) [nicardipine] | – | – | – | – | – | – | – | – | – | – | – | – | – | -VE | – | – | – | – | – | hLiMTs ATP <20 x Cmax [8]: -VE
Cc1c(C(=O)NN2CCCCC2)nn(-c2ccc(Cl)cc2Cl)c1-c1ccc(Cl)cc1 [rimonabant] | – | – | – | – | – | – | – | – | – | – | +VE | +VE | – | – | – | -VE | – | – | -VE | Bayesian Machine Learning ([11]; ref Williams 2019): +VE
CC(C(=O)O)c1ccc(C(=O)c2cccs2)cc1 (stereo not shown) [suprofen] | – | – | – | – | – | – | – | -VE | – | – | -VE | -VE | – | – | +VE | +VE | – | – | +VE | Bayesian Machine Learning ([11]; ref Williams 2019): +VE
O=C(O)COc1ccc(C(=O)c2cccs2)c(Cl)c1Cl [tienilic acid] | -VE | – | – | – | – | – | – | +VE | +VE | vMost-DILI-Concern | – | – | -VE | +VE | +VE | – | +VE | – | +VE | In vivo DILI ([12]; […]): +VE
Cc1ccc(C(=O)c2ccc(CC(=O)O)n2C)cc1 [tolmetin] | – | – | – | – | – | – | – | +VE | +VE | vLess-DILI-Concern | -VE | -VE | – | +VE | +VE | +VE | – | – | +VE | Structural based (HCI) ([14]; In vitro Assay, ref Xu 2008): +VE; In vivo DILI ([12]; ref Xu 2008): +VE
CC(=O)CC(c1ccccc1)c1c(O)c2ccccc2oc1=O (stereo not shown) [warfarin] | – | – | – | – | – | – | – | – | – | – | – | – | – | – | – | – | – | – | – | Cellular toxicity (3T3 cells) [4]: -VE; Combined Assay [4]: -VE; GSH adduct HML [4]: -VE; Hepatocyte cellular toxicity [4]: -VE; MitoTox 3T3 [4]: -VE; TDI CYP3A4 [4]: -VE; hBSEP inhibition [4]: -VE; Cluster 1-6 +VE Assay [5]: -VE; Structural based (HCI) [14]: -VE; Partition Hybrid HRM Score [10]: +VE; Ro2 Hybrid HRM Score [10]: -VE; Bayesian Machine Learning [11]: +VE
Cc1cc(CC(=O)O)n(C)c1C(=O)c1ccc(Cl)cc1 [zomepirac] | -VE | -VE | +VE | -VE | -VE | -VE | -VE | – | – | – | -VE | -VE | -VE | +VE | – | -VE | -VE | +VE | -VE | Combined Assay [4, 16]: +VE; Structural based (HCI) [15]: +VE; Structural based (HCI) ([14]; In vitro Assay, ref Xu 2008): -VE; In vivo DILI ([12]; […]): +VE; In vivo DILI ([12]; ref O'Brien 2006): -VE; In vivo DILI ([12]; ref Xu 2008): -VE
